Measured values: US10627415B2, “Compositions and methods for diagnosing, monitoring, and treating an autoimmune disease” (BOARD OF TRUSTEES OF MICHIGAN STATE UNIVERSITY, priority 2015, dated 2020)
Values belong to the molecule of their own block, whether it stands above or below them.

Key:
Type in all cases: cell-based, human
[1] = tested on: RBCs; assay: 65Zn2+ binding to RBCs; details: 20 nM 65Zn2+ and 20 nM C-peptide
Excerpt: In some embodiments, e.g., those in which RBCs are contacted with C-peptide and Zn^2+, Fe^2+, and/or Cr^3+, in the presence of albumin or other C-peptide binding facilitator, Zn^2+, Fe^2+, and/or Cr^3+ uptake by RBCs can be measured (e.g., as a proxy for C-peptide uptake). Methods for detecting or measuring Zn^2+ uptake by RBCs are known in the art and described in, e.g., Horn et al. (1995) J Physiol 489(1):73-80 (describing the use of radiolabeled Zn^2+).
Additional samples from healthy controls and MS patients were analyzed for C-peptide binding, ATP release (10 healthy control patients, 10 MS patients, and 12 MS patients with glybenclamide), and Zn^2+ binding (11 healthy control patients and 22 MS patients). […] Here, 20 nM ^65Zn^2+ was incubated with the RBCs and 20 nM C-peptide. It is noteworthy that in 32 of these 34 samples, MS ATP release, C-peptide and/or Zn^2+ binding, was higher than the control samples analyzed simultaneously with the MS samples.

[2] = tested on: RBCs of MS patients; assay: ATP release from RBCs in a constricted environment (luciferin/luciferase chemiluminescence); details: RBCs of MS patients incubated with the inhibitor; 7% hematocrit, flow; MS without inhibitor 344.7±46.8 nM, healthy controls 132.1±14.1 nM
Excerpt: In some embodiments, detecting or measuring the amount of C-peptide uptake can be accomplished by measuring ATP release by the RBCs contacted with C-peptide (and, optionally, Zn^2+, Fe^2+, and/or Cr^3+). Methods for measuring ATP release by RBCs are known in the art and described in, e.g., Faris and Spence (2008) Analyst 133(5):678-682; Fischer et al. (2003) Analyst 128(9):1163-1168; Petruzzi et al. (1994) Metabalism 43(4):435-440; Richards et al. (2013) Am J Physiol Regul Integr Comp Physiol 305(11):R1331-1336; and Richards et al. (2014) Am J Physiol Regul Integr Comp Physiol 307(7):R862-868. For example, ATP can be measured using a luciferin-luciferase assay. […] The light emitted from the reaction with ATP can be quantified using a luminometer. […]
Experiments were performed to determine if RBCs from MS patients (n=19) release more ATP than blood from healthy control patients (n=10) or blood from MS patents combined with the ATP release inhibitor, glybenclamide (Gly; n=12) when subjected to a constricted environment. […] The portion of tubing having the polyimide coating removed was positioned over a light-excluding box containing a photomultiplier tube (PMT), such that chemiluminescence generated from the ATP contacting the detection facilitator was detected. […]

[3] = tested on: RBCs; assay: Effect of C-peptide binding facilitator on C-peptide binding to RBCs (Example 2 protocol); details: for C-peptide binding to RBCs, MS: n = 1
Procedure: Similar studies were performed using serum albumin from other species (human, porcine, chicken); all of these forms deliver C-peptide to RBCs and are useful in the methods described herein.
All samples were handled in an identical manner. Briefly, about 10 mL of blood was drawn from each donor; the RBCs were purified by centrifugation; and the RBCs were suspended in physiological salt solution (PSS). Then RBCs were combined with PSS (containing bovine serum albumin (BSA) as a C-peptide binding facilitator) and C-peptide to generate a mixture having a 7% hematocrit, 20 nM C-peptide, and 75 μM BSA (0.5%). The mixture was allowed to incubate for 2 hours at 37° C. Next, the samples were centrifuged to separate the cells from solution, the solution was diluted 1:50 with double distilled water, and the amount of C-peptide remaining in the solution was determined by ELISA. This provided a value corresponding to the moles of C-peptide bound to the RBCs. […] Whereas blood from the healthy controls bound an average of 1.99±0.32 pmoles C-peptide, blood from MS patients and OND patients bound averages of 3.51±0.59 pmoles of C-peptide and 2.23±0.51 pmoles of C-peptide, respectively. As shown by p values of less than 0.001, the increase in C-peptide binding relative to healthy controls and OND patients is significant.
Experiments were performed to determine the effect of C-peptide binding facilitator concentration on C-peptide binding by RBCs. The protocol of Experiment 2 was repeated, but with increasing BSA concentrations. […] Only a slight increase in C-peptide binding is realized.
Experiments were performed to test various potential C-peptide binding facilitators. The experiments were performed as described in example 2, but the C-peptide binding facilitator, BSA, was replaced with other albumins (porcine serum albumin and ovalbumin) or other proteins (leptin, casein, transferrin, and collagen).

[4] = other protein in place of BSA, n = 3
[5] = other albumin in place of BSA, n = 4

amount of 65Zn2+ able to bind with the RBCs ([1]; RBCs of MS patients): 3.61±0.22 picomoles
amount of 65Zn2+ able to bind with the RBCs ([1]; RBCs of healthy controls): 2.26±0.24 picomoles
Molecule: [65Zn+2] [^65Zn^2+]

Molecule: COc1ccc(Cl)cc1C(=O)NCCc1ccc(S(=O)(=O)NC(=O)NC2CCCCC2)cc1 [glybenclamide]
ATP release [2]: 65.3 ± 11.6 nM

C-peptide binding ([3]; [BSA] 0.5%): 2.14 ± 0.22 pmol
C-peptide binding ([3]; [BSA] 1.0%): 2.19 ± 0.16 pmol
C-peptide binding ([3]; [BSA] 2.0%): 2.26 ± 0.13 pmol
Molecule: bovine serum albumin [BSA]

C-peptide binding to RBCs, MS ([3]; other protein in place of BSA): No binding detected
C-peptide binding to RBCs, Control [3, 4]: No binding detected
Molecule: casein

C-peptide binding to RBCs, MS ([3]; other protein in place of BSA): 0.56 pmol
C-peptide binding to RBCs, Control [3, 4]: 0.21 ± 0.14 pmol
Molecule: collagen

C-peptide binding to RBCs, MS ([3]; other protein in place of BSA): 0.97 pmol
C-peptide binding to RBCs, Control [3, 4]: 0.74 ± 0.11 pmol
Molecule: leptin

C-peptide binding to RBCs, MS ([3]; other albumin in place of BSA): 0.67 pmol
C-peptide binding to RBCs, Control [3, 5]: 0.39 ± 0.22 pmol
Molecule: ovalbumin

C-peptide binding to RBCs, MS ([3]; other protein in place of BSA): No binding detected
C-peptide binding to RBCs, Control [3, 4]: No binding detected
Molecule: transferrin

C-peptide binding to RBCs, MS ([3]; other albumin in place of BSA): 6.33 pmol
C-peptide binding to RBCs, Control [3, 5]: 4.01 ± 1.01 pmol
B1: porcine serum albumin (protein, UniProt P08835 25-607, looked up)
Albumin: DTYKSEIAHRFKDLGEQYFKGLVLIAFSQHLQQCPYEEHVKLVREVTEFAKTCVADESAENCDKSIHTLFGDKLCAIPSLREHYGDLADCCEKEEPERNECFLQHKNDNPDIPKLKPDPVALCADFQEDEQKFWGKYLYEIARRHPYFYAPELLYYAIIYKDVFSECCQAADKAACLLPKIEHLREKVLTSAAKQRLKCASIQKFGERAFKAWSLARLSQRFPKADFTEISKIVTDLAKVHKECCHGDLLECADDRADLAKYICENQDTISTKLKECCDKPLLEKSHCIAEAKRDELPADLNPLEHDFVEDKEVCKNYKEAKHVFLGTFLYEYSRRHPDYSVSLLLRIAKIYEATLEDCCAKEDPPACYATVFDKFQPLVDEPKNLIKQNCELFEKLGEYGFQNALIVRYTKKVPQVSTPTLVEVARKLGLVGSRCCKRPEEERLSCAEDYLSLVLNRLCVLHEKTPVSEKVTKCCTESLVNRRPCFSALTPDETYKPKEFVEGTFTFHADLCTLPEDEKQIKKQTALVELLKHKPHATEEQLRTVLGNFAAFVQKCCAAPDHEACFAVEGPKFVIEIRGILA
